In brackets after ≈: the same amount, converted by molar mass. Ends that are not written are not given here.
How the values were obtained:
lipid II = experiment: Spot-on-lawn assay of peptide-lipid II complex formation; format: cell-based, Enterococcus faecium; details: lipid II 300 μM, 2 μL spotted at edge of inhibition zone, E. faecium lawn, overnight 37 °C
Procedure: To assess the interaction between the peptide and lipid II, an overnight culture of E. faecium was added to 0.8% GM17 (w/v) at 45 °C with a final concentration of 0.1% (v/v), and the mixture was then poured into 10 mL plates. The binding of the peptide to lipid II was further examined by spotting purified lipid II (300 μM, 2 μL) at the periphery of the antibiotic inhibition zone. In brief, antimicrobials were applied to the agar plate. Once the antimicrobial solution drops had dried, lipid II was spotted at the edge of the inhibition zone. After the drops had dried, the plates were incubated overnight at 37 °C.

Enterococcus faecalis = experiment: Agar well diffusion assay; format: cell-based; details: HPLC-purified peptides
Procedure: (§1) An overnight culture was added at a concentration of 0.1% (v/v) to molten GM17 agar (for E. faecium and E. faecalis) or LB agar (for S. aureus and B. cereus) at 45 °C, and then 30 mL of this mixture was poured onto a plate. After the agar solidified, wells of 8 mm were created by punching in the agar and filled with 30 μL of a 1 mg/mL lantibiotic solution. If needed, lantibiotics were activated by adding 3 μL of 1 mg/mL NisP directly to the well. The quantity of nisin was determined using HPLC as previously outlined. The agar plate was then incubated at 37 °C overnight, and the zones of inhibition were measured. The presented data results from three independent experiments. Zone diameters were measured in millimeters and recorded as the area of the zone (πr ^2) minus the area of the well (πr ^2) in millimeters.

E. faecium cells = experiment: Membrane potential, DiSC3(5) probe; format: cell-based, Enterococcus faecium; details: different concentrations, 2 μM DiSC3(5), monitored 25 min, three replicates
Procedure: To assess the membrane potential, the membrane potential-sensitive fluorescent dye DiSC3(5) was employed. E. faecium was grown to an OD600 of 0.8, then centrifuged at 5000g for 5 min and washed twice in 10 mM HEPES with 10 mM glucose (pH 7.2). The cell density was adjusted to an OD600 of 0.2 and loaded with 2 μM DiSC3(5) dye, followed by a 20 min incubation in darkness to stabilize the probe fluorescence. Subsequently, the cell suspension was transferred to a 96-well microplate and incubated for 5 min with 100 mM KCl. Antibiotics were then introduced at a varied concentration, and the fluorescence was monitored for 25 min. The excitation and emission wavelengths on the fluorescence spectrometer were set to 622 and 670 nm, respectively. Three replicates were conducted, and a representative example is presented.

Solubility at neutral pH = format: physicochemical
Procedure: Highest solubility at pH 7 was obtained for nisin Z mutant M31K (7–8 mg/mL). The covalent modification of a therapeutic peptide or protein with sugar units is an established strategy to enhance drug solubility and bioavailability. The N-terminal segment of nisin contains a relatively high proportion of hydrophobic residues, while the C-terminal portion is more hydrophilic, featuring positively charged lysine and histidine side chains (Figure e). Attaching a hydrophilic sugar moiety to the C-terminal region of nisin therefore may not substantially alter its amphiphilic nature. To assess the solubility of nisin and its new variants at neutral pH, wild-type nisin or nisin(M21V)–Gal were added to a 50 mM PBS buffer solution (pH 7.2) at room temperature until precipitation occurred (Figure S7a). After equilibration, the concentration of dissolved nisin in the saturated solution was determined using high-performance liquid chromatography (HPLC).
Wild-type nisin (product code: 0305, Handary, Belgium) or nisin(M21V)–Gal was added to a 50 mM PBS buffer solution until precipitation occurred. Equilibrium was established by continuous shaking for 30 min, followed by centrifugation for 3 min at 15,000g. The concentration of the saturated nisin solution was determined using HPLC. […]

[1] = system: Staphylococcus aureus LMG15975 (MRSA); format: cell-based; details: broth microdilution, inoculum ~5 × 10^5 CFU/mL, overnight 37 °C, HPLC-purified peptides
Procedure: (§2) The minimal inhibitory concentration (MIC) values were assessed through broth microdilution following standard guidelines. The inoculum was adjusted to around 5 × 10^5 CFU/mL. MIC was characterized as the lowest concentration of the antimicrobial substance at which no visible growth was observed following overnight incubation at 37 °C.

[2] = system: Enterococcus faecium LMG16003 (VRE); format: cell-based; details: broth microdilution, inoculum ~5 × 10^5 CFU/mL, overnight 37 °C, HPLC-purified peptides
Procedure: as §2

E. faecium [3] = experiment: Potassium ion efflux assay (PBFI probe); format: cell-based, Enterococcus faecium; details: various peptide concentrations, up to 32 times MIC; 10 mM HEPES pH 7.2, 0.5% glucose, 10 μM PBFI
Procedure: To conduct the K^+ release assay, the K^+-specific fluorescent probe PBFI was utilized. E. faecium was cultured in GM17 medium until it reached an OD600 of 0.6, at which point the cells were harvested (5000g, 5 min) and washed twice with 10 mM HEPES (pH 7.2) containing 0.5% glucose. The cells were then suspended in the same buffer supplemented with 10 μM PBFI. Data analysis was carried out using a Varioskan LUX Multimode Microplate Reader (Thermo Fisher Scientific), with cell excitation at 346 nm and fluorescence emission measurement at 505 nm to establish a baseline signal before the introduction of varying concentrations of antibiotics. Nisin was utilized as the positive control in this study.

E. faecium [4] = experiment: Time-kill assay; format: cell-based, Enterococcus faecium
Procedure: The antimicrobial effectiveness of nisin, nisin(1–22), and nisin(M21V)–Gal was assessed using a method previously described by Guo et al. , In summary, an overnight culture of E. faecium was diluted 50 times in GM17 medium and cultured at 37 °C. The bacteria were grown until reaching an optical density at 600 nm (OD600) of 0.5, and then the cell concentration was adjusted to 5 × 10^5 colony-forming units per milliliter (CFU/mL). Following this, the bacteria were exposed to a 5-fold MIC of each peptide. An untreated cell suspension was used as a control. At specific time intervals, 50 μL samples were taken, and both undiluted and 10-fold serially diluted suspensions were plated on GM17 agar. The plates were then incubated overnight at 37 °C, and the resulting colonies were counted and expressed as CFU/mL. Each experiment was conducted in triplicate.

S. aureus = experiment: Agar well diffusion assay; format: cell-based, Staphylococcus aureus; details: HPLC-purified peptides
Procedure: as §1

E. faecium [5] = format: cell-based, Enterococcus faecium; details: agar well diffusion, 30 μL of 1 mg/mL
Procedure: 2 Production of single-Met containing nisin and nisin variants labeled with Met, Hpg or Hpg–Glc and their antibacterial activity against E. faecium strain. (a) Quantification of fully modified nisin variants labeled with Met or Hpg using HPLC as per Schmitt et al. (b) Evaluation of the antimicrobial efficacy of nisin and its variants against E. faecium through agar well diffusion assay. Each trial was repeated 3 times. The relative activity was determined by measuring inhibition zone diameters in millimeters, calculated as the area of the zone (πr ^2) minus the area of the well (πr ^2) in millimeters.
as §1

B. cereus = experiment: Agar well diffusion assay; format: cell-based, Bacillus cereus; details: HPLC-purified peptides
Procedure: as §1

[6] = system: Staphylococcus epidermidis; details: ref citation number not printed (Twomey et al. by title); cited from earlier work
Text: Recently, we introduced the Met analog Aha at position 17 and used click chemistry to ...

Compound | effect of externally added purified lipid II on antimicrobial activity / lipid II binding (lipid II) | activity compared to wild-type nisin or Hpg-labeled nisin(M21V) (Enterococcus faecalis) | membrane depolarization (DiSC3(5) fluorescence) (E. faecium cells) | solubility thermodynamic at 30 min (Solubility at neutral pH; aqueous buffer, thermodynamic from solid, thermodynamic, solid added until precipitation, 50 mM PBS pH 7.2, room temperature, shaking 30 min, centrifugation 3 min 15,000g, HPLC at 226 nm against nisin standard curve, repeated 3 times) [mg/mL] | solubility, times higher compared to wild-type nisin (Solubility at neutral pH; neutral pH, 50 mM PBS pH 7.2, room temperature) [times] | MIC [1] [mg/L] | MIC [2] [mg/L] | potassium ion release (PBFI fluorescence) (E. faecium [3]) | bacteriostatic or bactericidal nature (E. faecium [4]; 5-fold MIC against E. faecium) | reduction in bacterial population (E. faecium [4]; 5-fold MIC, after 3 h of incubation, start 5 × 10^5 CFU/mL, triplicate) | activity compared to wild-type nisin or Hpg-labeled nisin(M21V) (S. aureus) | antibacterial activity in words (E. faecium [5]) | activity compared to wild-type nisin or Hpg-labeled nisin(M21V) (B. cereus) | influence of M17 mutation on antimicrobial activity [6]
C=C(NC(=O)[C@@H](NC(=O)[C@H](Cc1c[nH]cn1)NC(=O)[C@@H](NC(=O)[C@H](CO)NC(=O)[C@@H]1CS[C@@H](C)[C@H]2NC(=O)[C@H](C)NC(=O)[C@H](NC(=O)[C@H](CCCCN)NC(=O)[C@@H](NC(=O)[C@H](CC(N)=O)NC(=O)[C@@H]3CS[C@@H](C)[C@@H](NC(=O)[C@H](CCCCN)NC(=O)[C@@H]4CS[C@@H](C)[C@@H](NC(=O)[C@@H]5CSC[C@@H](NC(=O)/C(=C/C)NC(=O)[C@@H](N)[C@@H](C)CC)C(=O)N[C@@H]([C@@H](C)CC)C(=O)NC(=C)C(=O)N[C@@H](CC(C)C)C(=O)N5)C(=O)N5CCC[C@H]5C(=O)NCC(=O)N4)C(=O)NCC(=O)N[C@@H](C)C(=O)N[C@@H](CC(C)C)C(=O)N[C@@H](CCc4cn(C[C@H]5OC(O)[C@H](O)[C@@H](O)[C@H]5O)nn4)C(=O)NCC(=O)N3)C(C)C)[C@H](C)SC[C@H](NC2=O)C(=O)N[C@@H](Cc2c[nH]cn2)C(=O)N1)[C@@H](C)CC)C(C)C)C(=O)N[C@@H](CCCCN)C(=O)O (some centres unmarked) [nisin(M21V)–Gal] | maintained its capacity to bind to lipid II | significantly lower activity | lost the ability to induce membrane depolarization | 8.6 (≈ 2450 µM) | 3.9 | 15.19 (≈ 4.33 µM) | 3.8 (≈ 1.08 µM) | did not demonstrate this effect | bactericidal activity | thousand-fold | reduced activity | retained high potency | reduced activity | –
M17Q: literature nisin mutant with M17Q mutation (ITSISLCTPGCKTGALQGCNMKTATCHCSIHVSK; cysteine pairing not given here; also: lantibiotic nisin-A; UniProt P13068 24-57, looked up, variant M17Q) | – | – | – | – | – | – | – | – | – | – | – | – | – | enhanced effectiveness

Source: publication PMC12455637, “Functionalizing Nisin with a Sugar Moiety Improves Its Solubility and Results in an Altered Antibacterial Spectrum and Mode of Action” (ACS Synthetic Biology, 2025)
